# Key:
# [1] = Plasma concentration after single IV or PO dose in mice (LC/MS/MS); format: in vivo; design: Plasma concentration PO @ t = 30 min: dose or concentration left out as unconfirmed; conditions: 30 min after dosing
# Experimental: Compounds were formulated at 0.4 and 1 mg/ml in a vehicle containing Poly-Ethylene Glycol 400 (PEG400; Cat. No. #91893, Sigma Aldrich) as dosing solutions for intravenous and oral administration, respectively. Male C57BL6 mice, approximately 8-10 weeks old (22-25 grams), were obtained from the vivarium Fundación Ciencia & Vida Chile (Santiago, Chile) and maintained in a temperature-controlled room with 12/12 hr light/dark schedule with food and water ad libitum. Animals were acclimated for a minimum period of 4 days upon arrival at the testing facility.
# At the day of study, mice were weighed, identified by marking the tail with numbers using a non-toxic permanent marker and designated into the experimental groups (n=3 per group). Each mouse of IV dosing groups received the systemic administration of 2 mg/kg dosing solution via caudal vein. […] No.: FTP-2038; Instech Salomon Inc.).
# Blood samples were harvested by terminal cardiac puncture at 30 min after dosing. Non-dosed mice were used to collect samples of zero time points. Whole blood was collected into microtainer tubes with (K2) EDTA (Cat. No.: 365974, Becton Dickinson & Co.). Blood samples were centrifuged immediately at 9,000 g at 4° C. for 5 min and then plasmas were separated. Plasma samples were placed into individually labeled cryovials and stored in a −80° C. freezer until LC/MS/MS bioanalysis.
# The bioanalysis of plasma samples to determine concentrations of exemplary compounds of the invention was conducted with a QTRAP 4500 triple quadrupole mass spectrometer (Applied Biosystems SCIEX) in the positive ion mode and interfaced with an ekspert ultraLC 100-XL UPLC System (eksigent). Calibration standards (0.01 to 100 μM) and QCs (0.2, 2.0 and 20 μM) were prepared from naïve mouse plasma in parallel with mouse plasma study samples (60 μl) by precipitation with three volumes of ice cold internal standard solution (acetonitrile containing 20 μM of theophylline). The precipitated samples were centrifuged at 6,100 g for 30 min at 4° C. Following centrifugation, an aliquot of each supernatant was transferred into a clean sample vial and diluted with two volumes of aqueous mobile phase (0.2% formic acid in water). Samples were injected onto a reverse phase analytical column (YMC Triart C18; 2.0×50 mm; 1.9 μm; YMC CO) and eluted with a gradient of 0.1 or 0.2% formic acid in Acetonitrile. Test compound and internal standard were monitored by a multiple reaction monitoring (MRM) experiment using an Analyst software (v 1.6.2, Applied Biosystems SCIEX). Quantitation was conducted using a MultiQuant software (v 2.1, Applied Biosystems SCIEX) and the resulting calibration curve was fitted with a linear or quadratic regression and 1/× weighting. The lower limit of quantitation were between 0.01-0.03 μM.
# IV and PO PK parameters were calculated from the concentration-time data using Phoenix WinNonlin software (v 6.4, Certara, Princeton, N.J.) by noncompartmental analysis in the sparse sampling mode.
# [2] = biological target: T1, native ARG1 enzyme in lysates of RBC (Homo sapiens, UniProt P05089); assay: Arginase enzymatic assay in RBC lysates from healthy donors; format: biochemical; conditions: human red blood cell lysates; read-out: IC50 Inh RBC
# T1 construct: native ARG1 enzyme in lysates of RBC; from tissue; host or cells: human red blood cell lysates from healthy donors
# T1 sequence (P05089 1-322): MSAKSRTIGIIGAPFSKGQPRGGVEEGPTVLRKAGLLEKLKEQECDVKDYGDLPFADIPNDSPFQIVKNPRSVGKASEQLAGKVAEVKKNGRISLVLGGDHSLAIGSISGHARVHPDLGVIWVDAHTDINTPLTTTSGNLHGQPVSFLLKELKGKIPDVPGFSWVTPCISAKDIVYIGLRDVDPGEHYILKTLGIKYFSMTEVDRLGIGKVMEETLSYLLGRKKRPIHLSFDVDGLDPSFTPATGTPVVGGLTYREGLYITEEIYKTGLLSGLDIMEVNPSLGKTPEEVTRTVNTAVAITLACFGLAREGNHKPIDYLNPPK
# Text: Arginase catalyzes the hydrolysis of L-arginine into L-ornithine and urea. Urea amount produced by this reaction can be detected using a colorimetric assay and used as an indirect measurement of arginase activity. An adapted protocol from (Baggio, R., et al., J Pharmacol Exp Ther, 1999. 290(3): p. 1409-16) was used for the testing the ability of exemplary compounds of the invention to inhibit arginase enzymes from a variety of sources including recombinant human ARG1 and 2, lysates of human red blood cells (RBC) and intact murine macrophages, as described below.
# Compounds of the invention were prepared from powder as 10 mM stock solutions in DMSO and stored in presence of N2 neutral atmosphere at −80° C. For IC50 determination and just before the assay, exemplary compounds were successively diluted to get the following concentrations: 210, 70, 21, 7, 2.1, 0.7, 0.21, 0.07, 0.021, 0.007, 0.0021 and 0.0007 μM (i.e., final concentrations in the wells of 30, 10, 3, 1, 0.3, 0.1, 0.03, 0.01, 0.003, 0.001, 0.0003, 0.0001 μM).
# Assays were run in clear flat bottom 96-well plates (Nunclon, Cat. No. #167008) adding in each well the following solutions in this order: (1) 10 μl of Tris-HCl solution supplemented with 0.1% bovine serum albumin (BSA) containing 1.563 μg/ml recombinant human ARG1 (R&D System, Cat. No. #5868-AR-010), (2) 30 μl of Tris-HCl buffer containing 10 mM MnCl2 and (3) 10 μL of a pre-dilution of each test article or DMSO (vehicle). Compounds were allowed to interact with the enzyme-cofactor complex pre-incubating the plate at 37° C. for 30 min. To start the reaction, 20 μl of 50 mM L-arginine (Sigma Aldrich Cat. #A5006-100G) were added to each well in exception of the blank reaction (see below). All reactions were allowed to happen for 1 h at 37° C. To detect the urea production, reactions were stopped by adding 200 μl of a mixture of reagent A (4 mM o-phthalaldehyde in 50 mM Boric Acid, 1 M Sulfuric Acid, 0.03% Brij-35 (w/v)) and reagent B (4 mM N-(1-naphthyl)ethylenediamine in 50 mM Boric Acid, 1 M Sulfuric Acid, 0.03% Brij-35 (w/v)) in equal proportion. Color product was developed for 1 h at room temperature (RT) protected from light and then absorbance at 520 nm was measured using a Multifunction Microplate Reader (Synergy 4, Bioteck). Blank reactions were carried out by adding the L-arginine substrate only after the addition of mixture A-B. All reactions were carried out in duplicates.
# The inhibition of urea production was calculated subtracting the absorbance from the blank reaction (zero enzymatic urea production) to the absorbance from all reactions and it was expressed as the percentage of the absorbance from the reaction containing the test article with respect to the absorbance from vehicle reaction (maximum of urea production).
# For testing inhibitory activity over RBC lysates from healthy donors, 10 μl of Tris-HCl solution supplemented with 0.1% BSA containing 160 μg RBC lysates per well was used instead.
SMILES,Plasma concentration PO @ t = 30 min [1],IC50 [2],Plasma concentration 2 mg/Kg IV @ t = 30 min [1]
"NC(CCCCB(O)O)(C(=O)O)C1CCN(C2CCc3ccccc32)CC1 (single isomer, unassigned) [Compound 2, 2-amino-6-borono-2-(1-(2,3-dihydro-1H-inden-1-yl)piperidin-4-yl)hexanoic acid]",+ (plasma concentration < 500 nM),< 500 nM,
"NC(CCCCB(O)O)(C(=O)O)C1CCN(C2CCc3ccccc32)CC1 (single isomer, unassigned) [Compound 3, 2-amino-6-borono-2-(1-(2,3-dihydro-1H-inden-1-yl)piperidin-4-yl)hexanoic acid]",,> 5000 nM,
"NC(CCCCB(O)O)(C(=O)O)C1CCN(C2CCCc3ccccc32)CC1 (single isomer, unassigned) [Compound 4, 2-amino-6-borono-2-(1-(1,2,3,4-tetrahydronaphthalen-1-yl)piperidin-4-yl)hexanoic acid]",,< 500 nM,
"NC(CCCCB(O)O)(C(=O)O)C1CCN(C2CCCc3ccccc32)CC1 (single isomer, unassigned) [Compound 5, 2-amino-6-borono-2-(1-(1,2,3,4-tetrahydronaphthalen-1-yl)piperidin-4-yl)hexanoic acid]",+ (plasma concentration < 500 nM),< 500 nM,++ (plasma concentration > 1000 nM for test compound)
"NC(CCCCB(O)O)(C(=O)O)C1CCN(C2CCCc3ccccc32)CC1 (single isomer, unassigned) [Compound 6, 2-amino-6-borono-2-(1-(1,2,3,4-tetrahydronaphthalen-1-yl)piperidin-4-yl)hexanoic acid]",,> 5000 nM,
"CC(c1ccccc1)N1CCC(C(N)(CCCCB(O)O)C(=O)O)CC1 (single isomer, unassigned) [Compound 10, 2-amino-6-borono-2-(1-(1-phenylethyl)piperidin-4-yl)hexanoic acid]",+ (plasma concentration < 500 nM),< 500 nM,+ (plasma concentration < 500 nM)
"CC(c1ccccc1)N1CCC(C(N)(CCCCB(O)O)C(=O)O)CC1 (single isomer, unassigned) [Compound 11, 2-amino-6-borono-2-(1-(1-phenylethyl)piperidin-4-yl)hexanoic acid]",,> 5000 nM,
"NC(CCCCB(O)O)(C(=O)O)C1CCN(C2CCc3cc(Cl)ccc32)CC1 (single isomer, unassigned) [Compound 14, 2-amino-6-borono-2-[1-(5-chloroindan-1-yl)-4-piperidyl]hexanoic acid]",,< 500 nM,
"NC(CCCCB(O)O)(C(=O)O)C1CCN(C2CCCc3cc(Cl)ccc32)CC1 (single isomer, unassigned) [Compound 17, 2-amino-6-borono-2-(1-(6-chloro-1,2,3,4-tetrahydronaphthalen-1-yl)piperidin-4-yl)hexanoic acid]",,< 500 nM,
"CNC(CCCCB(O)O)(C(=O)O)C1CCN(C2CCCc3ccccc32)CC1 (single isomer, unassigned) [Compound 79, 6-borono-2-(methylamino)-2-(1-(1,2,3,4-tetrahydronaphthalen-1-yl)piperidin-4-yl)hexanoic acid]",,< 500 nM,
"NC(CCCCB(O)O)(C(=O)O)C1CCN(C2CCCc3ccc(F)cc32)CC1 (single isomer, unassigned) [Compound 83, 2-amino-6-borono-2-(1-(7-fluoro-1,2,3,4-tetrahydronaphthalen-1-yl)piperidin-4-yl)hexanoic acid]",+ (plasma concentration < 500 nM),< 500 nM,
"NC(CCCCB(O)O)(C(=O)O)C1CCN(C2CCCCc3ccccc32)CC1 (single isomer, unassigned) [Compound 84, 2-amino-6-borono-2-(1-(6,7,8,9-tetrahydro-5H-benzo[7]annulen-5-yl)piperidin-4-yl)hexanoic acid]",,< 500 nM,
"NC(CCCCB(O)O)(C(=O)O)C1CCN(C2CCc3cc(C(F)(F)F)ccc32)CC1 (single isomer, unassigned) [Compound 85, 2-amino-6-borono-2-[1-[5-(trifluoromethyl)indan-1-yl]-4-piperidyl]hexanoic acid]",,< 500 nM,
"NC(CCCCB(O)O)(C(=O)O)C1CCN(C2CCc3ccccc32)CC1 (stereo not shown) [Compound 1, 2-amino-6-borono-2-(1-(2,3-dihydro-1H-inden-1-yl)piperidin-4-yl)hexanoic acid]",,< 500 nM,
"CC(c1ccccc1)N1CCC(C(N)(CCCCB(O)O)C(=O)O)CC1 (stereo not shown) [Compound 9, 2-amino-6-borono-2-(1-(1-phenylethyl)piperidin-4-yl)hexanoic acid]",,< 500 nM,
"CC1(C)OB(CCCCC(N)(C(=O)O)C2CCN(C3CCCc4ccccc43)CC2)OC1(C)C (stereo not shown) [Compound 77, 2-amino-2-(1-(1,2,3,4-tetrahydronaphthalen-1-yl)piperidin-4-yl)-6-(4,4,5,5-tetramethyl-1,3,2-dioxaborolan-2-yl)hexanoic acid]",,< 500 nM,

# — US20220017541A1, “INHIBITORS OF ARGINASE” (Black Belt Tx Ltd, priority 2018, published 2022)
